Measured values: patent publication US20170343551A1, “METHOD OF DIAGNOSING AND TREATING PROSTATE CANCER” (Board of Supervisors of Louisiana State University and …, priority 2016, published 2017)

Experiments:
Assay type in all cases: cell-based
SPDEF mRNA in PC3 cells = experiment: SPDEF (PDEF) mRNA expression by RT-PCR in treated PC3 cells; details: FIG. 8A/8B
Text: (§1) FIGS. 8A-8C show SPDEF is subjected to DNA methylation regulation.
(§2) Both culture and socioeconomic status can affect epigenetic processes; and the epigenetic modification effects can extend not only throughout the life course, but also to generations followed. DNA methylation and histone modifications are two common epigenetic mechanisms that control the expression of affected genes. […] Concomitant with the increased levels of SPDEF, 5-aza treatments reduced the cell migration and invasion ability of PC3 cells. Additionally, the inventors have also examined the distribution of CpG islands in the proximal promoter region of SPDEF. […] Expected treatment levels include, for example, azacytidine 2.5 mg/kg and decitabine 2.5 mg/kg.

TMS1 in PC3 cells = experiment: TMS1 expression (methylation-repressed positive control gene) in treated PC3 cells; details: known methylation-repressed gene as positive control, FIG. 8A
Text: as §1

PC3 cells [1] = experiment: Cell migration ability of PC3 cells; details: FIG. 8C
Text: as §1, §2

PC3 cells [2] = experiment: Invasion ability of PC3 cells

Compound | expression of SPDEF (PDEF) mRNA (SPDEF mRNA in PC3 cells) | expression of TMS1 (TMS1 in PC3 cells) | cell migration ability (PC3 cells [1]) | invasion ability (PC3 cells [2])
CCCC(CCC)C(=O)O [VPA, valproic acid] | did not alter |  |  | 
Nc1ncn([C@H]2C[C@H](O)[C@@H](CO)O2)c(=O)n1 [5-Aza, 5-aza-2′-deoxycytidine] | induced | induced | reduced | reduced
